The assay deals with Tel-23 (DNA telomeric G4) (DNA, G4) TAGGGTTAGGGTTAGGGTTAGGG
The assay can be described thus: UV melting at 290 nm. The note with it: K+ (KCl 50 mM), NaCac 2.5 mM, pH 6.5, G4 0.472 µM.

Turning to `CCN1[C]N(Cc2c3ccccc3cc3ccccc23)C=C1.CCN1[C]N(Cc2c3ccccc3cc3ccccc23)C=C1.[Ag+]`, the shift in melting temperature (ΔTm) (CG4/CAg = 1.4, derived from two Tm (60 and 60)) worked out at 0 °C. `CCN1[C]N(Cc2c3ccccc3cc3ccccc23)C=C1.CCN1[C]N(Cc2c3ccccc3cc3ccccc23)C=C1.[Au+]`: the ΔTm (CG4/CAu = 0.5, derived from two Tm (60 and 57)) was -3 °C.

Source of the values: PMC7699860 (Molecules, 2020).
